Measured values as given in publication PMC7873978, “A Novel Lipoate-Protein Ligase, Mhp-LplJ, Is Required for Lipoic Acid Metabolism in Mycoplasma hyopneumoniae” (Frontiers in Microbiology, 2021).

Assays:
[1] = molecular target: T1, Mhp-LplJ (lipoate-protein ligase, MHP_RS00640) (Mesomycoplasma hyopneumoniae, UniProt E4QSS7); assay: SPR (Biacore 8K), single-site affinity fit; also inhibits PdhD lipoylation in vitro at […]; format: binding
T1 construct: gene lplA; hexa-histidine-tagged Mhp-LplJ (pET22b)
T1 sequence (E4QSS7 1-336): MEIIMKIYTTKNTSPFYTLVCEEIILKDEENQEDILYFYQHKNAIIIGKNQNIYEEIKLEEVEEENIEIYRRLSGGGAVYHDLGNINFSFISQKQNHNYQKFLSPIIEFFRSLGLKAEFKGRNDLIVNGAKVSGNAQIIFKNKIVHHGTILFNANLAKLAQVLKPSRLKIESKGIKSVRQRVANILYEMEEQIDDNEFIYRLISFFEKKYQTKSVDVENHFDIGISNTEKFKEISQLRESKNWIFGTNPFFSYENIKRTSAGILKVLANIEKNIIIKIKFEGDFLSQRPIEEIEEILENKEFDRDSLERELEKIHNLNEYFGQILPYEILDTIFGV

[2] = molecular target: T1, Mhp-LplJ (lipoate-protein ligase, MHP_RS00640); assay: SPR (Biacore 8K, CM5, immobilized Mhp-LplJ), single-site kinetics fit; format: binding
[3] = molecular target: T2, E. coli LplA (lipoate-protein ligase A) (Escherichia coli, UniProt P32099); assay: in vitro lipoate ligation to apo-PdhD, anti-lipoic acid western blot (positive control enzyme); format: biochemical
T2 construct: hexa-histidine-tagged E. coli LplA (pET32a)
T2 sequence (P32099 2-338): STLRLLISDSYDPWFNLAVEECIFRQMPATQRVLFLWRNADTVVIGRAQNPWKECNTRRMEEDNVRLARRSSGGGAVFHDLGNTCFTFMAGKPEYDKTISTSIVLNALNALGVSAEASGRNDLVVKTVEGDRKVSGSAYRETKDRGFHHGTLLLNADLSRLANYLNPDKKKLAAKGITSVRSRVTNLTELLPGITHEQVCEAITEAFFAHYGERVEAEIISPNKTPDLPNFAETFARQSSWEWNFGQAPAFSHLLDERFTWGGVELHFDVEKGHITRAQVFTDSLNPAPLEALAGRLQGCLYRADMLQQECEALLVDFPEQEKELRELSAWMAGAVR

[4] = molecular target: T1, Mhp-LplJ (lipoate-protein ligase, MHP_RS00640); assay: in vitro octanoate ligation to apo-PdhD, gel shift assay; format: biochemical

O=C(O)CCCCCCCBr [8-BrO, 8-bromooctanoic acid]
Kd [1]: 29.8 ± 3.62 µM

O=C(O)CCCC[C@@H]1CCSS1 [lipoic acid, (R)-5-(1,2-dithiolane-3-yl) pentanoic acid]
Kd [2]: 24.1 ± 1.61 µM
in vitro lipoate ligation to apo-PdhD, anti-lipoic acid western blot (positive c) [3]: PdhD was successfully modified by E. coli LplA in vitro in the presence of lipoic acid

CCCCCCCC(=O)O [octanoic acid]
in vitro octanoate ligation to apo-PdhD, gel shift assay [4]: Mhp-LplJ could able to catalyze the attachment of free octanoic acid to PdhD
